≈ marks a conversion by molar mass, not a printed value. Where two headings read alike, the source gives them in different places. One block for each compound: values may come before it.
Key:
[1] = Two-steps Dissolution/Precipitation in vitro Human Fasted model (gastric then intestinal compartment); type: physicochemical; conditions: for Crystalline phase conversion as detected by XRPD: solid residues collected in the fasted Dissolution/Precipitation test
Procedure: Samples were analysed by HPLC-UV according to the following method: • Instrument: Agilent 1200 and 1100 with PDA detector • Column: Waters XTerra MS C18 3.5 μm 4.6×50 mm • Flow rate: 1.5 ml/min • UV detection: 220 nm, 270 nm, 290 nm • Column temperature: 40° C. • Injection volume: 1 μl • Mobile phase: gradient with solutions A and B prepared according to the following: • Eluent A: Ultrapurified water adjusted to pH2 with orthophosphoric acid 85% • Eluent B: Acetonitrile
The ABX464 crystalline Form I, and anhydrous ABX464 hemi-Napadisylate salt have been evaluated in the Two-steps Dissolution/Precipitation in vitro Human model.
The model consists in the following steps: • Dispensing selected material in Fasted simulated gastric medium containing 1% w PVPVA (inhibitor of precipitation) and then after 30 min, • Diluting obtained suspension by simulated Fasted intestinal medium.
Using this model, the dissolution of selected materials (ABX464 crystalline Form I, or anhydrous BX464 hemi-Napadisylate salt) in gastric medium and the risk of precipitation of the API (Active Pharmaceutical Ingredient) in intestinal compartment is evaluated.
The crystalline nature of solid residues collected by end of each steps (Gastric and Intestinal) have been determined by XRPD after centrifugation (15 min at 18000 rpm).
Protocol for Dissolution/Precipitation Model in Human Fasted Conditions • In 6 different vials, 4.0 mg equivalent ABX464 of selected material are weighed • Solubility measurement in the gastric compartment (also named G) after 15 min (G15 min) and after 30 min (G30 min) which comprises the following steps: • Adding 1 mL of FaSSGF pH 1.2 medium containing 1% w PVPVA (ABX464 target concentration=4 mg/ml) on the 6 vials, • Mixing with a vortex at 37° C. • At times 15 min and 30 min, considering one vial (vials labelled G15 min and G30 min respectively) and for each vials • noting the aspect of suspension, • centrifuging 5 min at 18000 rpm and filtering on a 0.45 μm filter (filter Millex LCR Ref. SLCR0,13NK). • Measuring the pH of supernatant, • Dosing ABX464 soluble fraction by HPLC, • Recording XPRD pattern on the final time point sample. • Solubility measurement in the intestinal compartment (also named I) after 15 min (vial I 15 min), 30 min (vial I 30 min), 60 min (vial I 60 min) and 120 min (vial I 120 min) which comprises the following steps: • Adding 1 mL of FaSSIF ×2 pH 6.5 medium/sodium bicarbonate 90/10) on the 4 remaining vials (ABX464 target concentration=2 mg/ml) • Mixing with a Vortex at 37° C. • At times 15 min, 30 min, 60 min and 120 min, considering one vial (vials labelled I 15 min, I 30 min, I 60 min and I 120 min respectively) and for each vials • noting the aspect of suspension • Centrifuging 5 min at 18000 rpm and filtering on a 0.45 μm filter (filter Millex LCR Ref. SLCR0,13NK). • Measuring the pH of supernatant • Dosing ABX464 soluble fraction by HPLC • Recording XPRD pattern on the final time point sample.
Composition and preparation of biorelevant media in Fasted conditions (see tables 11 and 12): • Fasted Gastric medium=FaSSGF pH=1.2/1% PVPVA w/v
• Fasted Intestinal medium (FaSSIF X2 pH=6.5/Sodium Bicarbonate at 80 g/l 90/10 v/v) Composition/Preparation of FaSSIF ×2 (medium concentrated 2 times to take into account the dilution in the Fasted model):
The FaSSIF X2/Sodium Bicarbonate 80 g/l (90/10; v/v) mixture was prepared to keep pH equal to 6.5 in the intestinal compartment after dilution.

[2] = Kinetic solubility in two aqueous media (FaSSIF pH 6.5 + 1% PVPVA; FeSSIF pH 5.0 + 1% PVPVA); conditions: for Solubility compared to the ABX464 crystalline Form I: FaSSIF and FeSSIF media (+ 1% PVPVA), at each time; for Kinetic solubility: room temperature, 2 mg/ml equivalent ABX464 target
Procedure: (§1) These two specific aqueous media are more particularly: • FaSSIF (namely Fasted State Simulated Intestinal Fluid) pH=6.5+1% by weight of PVPVA (polyvinyl pyrrolidone-vinyl acetate: a precipitation inhibitor); and • FeSSIF (namely Fed State Simulated Intestinal Fluid) pH=5.0+1% by weight of PVPVA (a precipitation inhibitor)
(§2) To make 5 mL of FeSSIF the steps were as follows: • weighing 56.0 mg of SIF Powder, adding 350 μl of FeSSIF Buffer Concentrate then making up to 5.0 mL with ultrapurified water; and adding 1% w/w PVPVA.

physchem = conditions: thermodynamic from solid
Procedure: as §1, §2

[3] = FaSSIF pH 6.5 + 1% PVPVA, pH 6.5, aqueous with cosolvent or surfactant or cyclodextrin
[4] = FeSSIF + 1% PVPVA, pH 5, aqueous with cosolvent or surfactant or cyclodextrin
[5] = FeSSIF pH 5 + 1% PVPVA, pH 5, aqueous with cosolvent or surfactant or cyclodextrin

Soluble fraction ([1]; gastric compartment, vial G 15 min, FaSSGF pH 1.2 + 1% PVPVA, 37° C., target about 4 mg/ml): 0.05 mg/mL
Soluble fraction ([1]; gastric compartment, vial G 30 min, FaSSGF pH 1.2 + 1% PVPVA, 37° C., target about 4 mg/ml): 0.06 mg/mL
Solubility (ABX464 soluble fraction) in the intestinal compartment ([1]; intestinal compartment at pH 6.5 of the fasted human in vitro model): ~430 µg/mL
Soluble fraction ([1]; intestinal compartment, vial I 15 min (45 min total), FaSSIF x2 pH 6.5/sodium bicarbonate 90/10 added, 37° C., target about 2 mg/ml): 0.17 mg/mL
Soluble fraction ([1]; intestinal compartment, vial I 30 min (60 min total), FaSSIF x2 pH 6.5/sodium bicarbonate 90/10 added, 37° C., target about 2 mg/ml): 0.23 mg/mL
Soluble fraction ([1]; intestinal compartment, vial I 60 min (90 min total), FaSSIF x2 pH 6.5/sodium bicarbonate 90/10 added, 37° C., target about 2 mg/ml): 0.32 mg/mL
Soluble fraction ([1]; intestinal compartment, vial I 120 min (150 min total), FaSSIF x2 pH 6.5/sodium bicarbonate 90/10 added, 37° C., target about 2 mg/ml): 0.43 mg/mL
Crystalline phase conversion as detected by XRPD ([1]; intestinal compartment): no crystalline phase conversion
Solubility compared to the ABX464 crystalline Form I [2]: higher solubility
Solubility compared to the ABX464 crystalline Form I ([2]; listed as ABX464 hemi-Napadisylate salt): significant higher solubility
Kinetic solubility ([2]; FassiF pH 6.5 + 1% PVPVA, sampling time 5 min): 70 µg/mL
Kinetic solubility ([2]; FassiF pH 6.5 + 1% PVPVA, sampling time 30 min): 116 µg/mL
Kinetic solubility ([2]; FassiF pH 6.5 + 1% PVPVA, sampling time 2 h): 149 µg/mL
Kinetic solubility ([2]; FassiF pH 6.5 + 1% PVPVA, sampling time 4 h): 206 µg/mL
Kinetic solubility ([2]; FassiF pH 6.5 + 1% PVPVA, sampling time 24 h): 432 µg/mL
Solubility, plateau ([2]; FeSSIF + 1% PVPVA medium, at 2 h): ~1050 µg/mL
solubility ([2]; FeSSIF + 1% PVPVA medium, at 24 h): ~1520 µg/mL
Kinetic solubility ([2]; FessiF pH 5 + 1% PVPVA, sampling time 5 min): 396 µg/mL
Kinetic solubility ([2]; FessiF pH 5 + 1% PVPVA, sampling time 30 min): 782 µg/mL
Kinetic solubility ([2]; FessiF pH 5 + 1% PVPVA, sampling time 2 h): 1053 µg/mL
Kinetic solubility ([2]; FessiF pH 5 + 1% PVPVA, sampling time 4 h): 1055 µg/mL
Kinetic solubility ([2]; FessiF pH 5 + 1% PVPVA, sampling time 24 h): 1517 µg/mL
SMILES: FC(F)(F)Oc1ccc(Nc2ccc3cccc(Cl)c3n2)cc1.FC(F)(F)Oc1ccc(Nc2ccc3cccc(Cl)c3n2)cc1.O=S(=O)(O)c1cccc2c(S(=O)(=O)O)cccc12 [anhydrous ABX464 hemi-Napadisylate salt]

solubility at 15 min ([1]; 37 °C, pH 1.2, fassgf or other biorelevant, thermodynamic from solid, gastric compartment, vial G 15 min, FaSSGF pH 1.2 + 1% PVPVA, 37° C., target about 4 mg/ml, read-out: Soluble fraction): 60 µg/mL
solubility at 30 min ([1]; 37 °C, pH 1.2, fassgf or other biorelevant, thermodynamic from solid, gastric compartment, vial G 30 min, FaSSGF pH 1.2 + 1% PVPVA, 37° C., target about 4 mg/ml, read-out: Soluble fraction): 70 µg/mL
solubility ([1]; 37 °C, pH 6.5, fassif, thermodynamic from solid, intestinal compartment at pH 6.5 of the fasted human in vitro model, read-out: Solubility (ABX464 soluble fraction) in the intestinal compartment): ~80 µg/mL (≈ 236 µM)
solubility at 15 min ([1]; 37 °C, pH 6.5, fassif, thermodynamic from solid, intestinal compartment, vial I 15 min (45 min total), FaSSIF x2 pH 6.5/sodium bicarbonate 90/10 added, 37° C., target about 2 mg/ml, read-out: Soluble fraction): 60 µg/mL (≈ 177 µM)
solubility at 30 min ([1]; 37 °C, pH 6.5, fassif, thermodynamic from solid, intestinal compartment, vial I 30 min (60 min total), FaSSIF x2 pH 6.5/sodium bicarbonate 90/10 added, 37° C., target about 2 mg/ml, read-out: Soluble fraction): 70 µg/mL (≈ 207 µM)
solubility at 60 min ([1]; 37 °C, pH 6.5, fassif, thermodynamic from solid, intestinal compartment, vial I 60 min (90 min total), FaSSIF x2 pH 6.5/sodium bicarbonate 90/10 added, 37° C., target about 2 mg/ml, read-out: Soluble fraction): 70 µg/mL (≈ 207 µM)
solubility at 120 min ([1]; 37 °C, pH 6.5, fassif, thermodynamic from solid, intestinal compartment, vial I 120 min (150 min total), FaSSIF x2 pH 6.5/sodium bicarbonate 90/10 added, 37° C., target about 2 mg/ml, read-out: Soluble fraction): 80 µg/mL (≈ 236 µM)
Crystalline phase conversion as detected by XRPD ([1]; intestinal compartment): no crystalline phase conversion
solubility kinetic at 5 min (physchem; [3]): 6 µg/mL
solubility kinetic at 30 min (physchem; [3]): 22 µg/mL
solubility kinetic at 2 h (physchem; [3]): 47 µg/mL
solubility kinetic at 4 h (physchem; [3]): 62 µg/mL
solubility kinetic at 24 h (physchem; [3]): 72 µg/mL
solubility at 2 h (physchem; [4]): ~300 µg/mL
solubility at 24 h (physchem; [4]): ~420 µg/mL
solubility kinetic at 5 min (physchem; [5]): 54 µg/mL
solubility kinetic at 30 min (physchem; [5]): 153 µg/mL
solubility kinetic at 2 h (physchem; [5]): 297 µg/mL
solubility kinetic at 4 h (physchem; [5]): 358 µg/mL
solubility kinetic at 24 h (physchem; [5]): 419 µg/mL
SMILES: FC(F)(F)Oc1ccc(Nc2ccc3cccc(Cl)c3n2)cc1 [ABX464 crystalline Form I, 8-chloro-N-(4-(trifluoromethoxy)phenyl)quinolin-2-amine]
